The test system of this assay is L1210 leukemia ip in BDF1 mice, survival T/C. Put plainly: NCI In Vivo Anticancer Drug Screen. Data for tumor model L1210 Leukemia (intraperitoneal) in B6D2F1 (BDF1) mice. The conditions noted are these: endpoint: mean survival time, higher = longer survival. The gist of the method: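 Each compound was tested against a transplantable tumor grown in mice. The endpoint was survival, with treated animals benchmarked against vehicle controls as a simple ratio.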

The mark [1] stands for this setting: dose: 100.0 mg/kg/injection, schedule: Q01DX009 (ip), vehicle: Klucel (hydroxypropylcellulose) (HPC).
Setting [2] is: dose: 100.0 mg/kg/injection, schedule: Q04DX003 (ip), vehicle: Klucel (hydroxypropylcellulose) (HPC).
The mark [3] stands for this setting: dose: 200.0 mg/kg/injection, schedule: Q01DX009 (ip), vehicle: Klucel (hydroxypropylcellulose) (HPC).
The mark [4] stands for this setting: dose: 200.0 mg/kg/injection, schedule: Q04DX003 (ip), vehicle: Klucel (hydroxypropylcellulose) (HPC).
[5] abbreviates: dose: 400.0 mg/kg/injection, schedule: Q04DX003 (ip), vehicle: Klucel (hydroxypropylcellulose) (HPC).
The mark [6] stands for this setting: dose: 100.0 mg/kg/injection, schedule: Q04DX002 (ip), vehicle: Klucel (hydroxypropylcellulose) (HPC).
Setting [7] is: dose: 200.0 mg/kg/injection, schedule: Q04DX002 (ip), vehicle: Klucel (hydroxypropylcellulose) (HPC).
Setting [8] is: dose: 400.0 mg/kg/injection, schedule: Q04DX002 (ip), vehicle: Klucel (hydroxypropylcellulose) (HPC).
The mark [9] stands for this setting: dose: 100.0 mg/kg/injection, schedule: Q01DX001 (ip), vehicle: saline.
Where [10] appears, read: dose: 200.0 mg/kg/injection, schedule: Q01DX001 (ip), vehicle: saline.
The mark [11] stands for this setting: dose: 400.0 mg/kg/injection, schedule: Q01DX001 (ip), vehicle: saline.

Values joined by “and” are separate entries in the source; they are usually repeats but may differ in a detail not shown here. Equal values may be shown once. Inconclusive results and toxic doses are left out.

Regarding `CC(=O)CC(=O)N1CCC(C)CC1`, the T/C reads like this: under setting [1], 96 % of control; under setting [2], 103 % of control; under setting [3], 100 % of control; under setting [4], 101 % of control; (dose: 400.0 mg/kg/injection, schedule: Q01DX009 (ip), vehicle: Klucel (hydroxypropylcellulose) (HPC)) 95 % of control; under setting [5], 101 % of control.

For `CSc1n[nH]c(/N=N/N(C)C)c1C(N)=O`, the T/C under setting [2] was 99 % of control, the T/C under setting [4] is 103 % of control and the T/C under setting [5] is 111 % of control.

For the compound `NC(=O)N(CCCCN(N=O)C(N)=O)N=O`, the T/C was 152 % of control (dose: 40.0 mg/kg/injection, schedule: Q01DX001 (ip), vehicle: saline with Tween-80); 178 % of control (dose: 60.0 mg/kg/injection, schedule: Q01DX001 (ip), vehicle: saline with Tween-80); 246 % of control (dose: 93.0 mg/kg/injection, schedule: Q01DX001 (ip), vehicle: saline with Tween-80); 90 % of control (dose: 500.0 mg/kg/injection, schedule: Q01DX001 (ip), vehicle: saline with Tween-80).

Turning to `Cc1nc(N)[nH]c(=O)c1CCCNc1ccc(CCC(=O)CCl)cc1`, the T/C runs as follows: (dose: 50.0 mg/kg/injection, schedule: Q01DX Z (ip), vehicle: carboxymethylcellulose (CMC)) 94 % of control; (dose: 100.0 mg/kg/injection, schedule: Q01DX Z (ip), vehicle: carboxymethylcellulose (CMC)) 94 % of control; (dose: 200.0 mg/kg/injection, schedule: Q01DX Z (ip), vehicle: carboxymethylcellulose (CMC)) 86 % of control.

For the compound `O=C(Nc1ccccc1Cl)Oc1ccccc1-c1ccccc1`, the T/C under setting [6] is 106 % of control, the T/C under setting [7] is 113 % of control and the T/C under setting [8] was 120 % of control.

Turning to `CC(=N\N=C(N)N)/C(C)=N/N=C(N)N`, the T/C by setting is: (dose: 75.0 mg/kg/injection, schedule: Q01DX001 (ip), vehicle: saline) 101 % of control; (dose: 150.0 mg/kg/injection, schedule: Q01DX001 (ip), vehicle: saline) 98 % of control.

In the case of `NC(N)=N/N=C/c1ccccc1O`, the T/C by setting is: (dose: 15.0 mg/kg/injection, schedule: Q01DX Z (ip), vehicle: saline) 98 % of control and 91 % of control; (dose: 31.0 mg/kg/injection, schedule: Q01DX Z (ip), vehicle: saline) 87 % of control and 91 % of control; (dose: 63.0 mg/kg/injection, schedule: Q01DX Z (ip), vehicle: saline) 87 % of control; (dose: 125.0 mg/kg/injection, schedule: Q01DX Z (ip), vehicle: saline) 87 % of control.

With `O=C1CNC(=O)CN1`, the T/C by setting is: (dose: 75.0 mg/kg/injection, schedule: Q01DX009 (ip), vehicle: saline) 94 % of control; (dose: 100.0 mg/kg/injection, schedule: Q04DX003 (ip), vehicle: saline) 103 % of control; (dose: 150.0 mg/kg/injection, schedule: Q01DX009 (ip), vehicle: saline) 92 % of control; (dose: 200.0 mg/kg/injection, schedule: Q04DX003 (ip), vehicle: saline) 106 % of control; (dose: 300.0 mg/kg/injection, schedule: Q01DX009 (ip), vehicle: saline) 94 % of control; (dose: 400.0 mg/kg/injection, schedule: Q04DX003 (ip), vehicle: saline) 100 % of control.

As for `COC(=O)c1ccc(=O)n(C/C=C(\C)CCC=C(C)C)c1`, the T/C was 95 % of control under setting [9]; 104 % of control (dose: 100.0 mg/kg/injection, schedule: Q01DX009 (ip), vehicle: saline); 97 % of control under setting [10]; 90 % of control (dose: 200.0 mg/kg/injection, schedule: Q01DX009 (ip), vehicle: saline); 101 % of control under setting [11]; 101 % of control (dose: 400.0 mg/kg/injection, schedule: Q01DX009 (ip), vehicle: saline).

As to `CCC(C)OC(c1ccc2c(c1)OCO2)C(C)Br` (configuration not stated), the T/C runs as follows: (dose: 100.0 mg/kg/injection, schedule: Q04DX002 (ip), vehicle: saline with Tween-80) 107 % of control; (dose: 200.0 mg/kg/injection, schedule: Q04DX002 (ip), vehicle: saline with Tween-80) 93 % of control; (dose: 400.0 mg/kg/injection, schedule: Q04DX002 (ip), vehicle: saline with Tween-80) 96 % of control.

On to `C=CCCN1CCCC1`, for which the T/C by setting is: (dose: 1.5 mg/kg/injection, schedule: Q01DX009 (ip), vehicle: saline with Tween-80) 100 % of control; (dose: 3.0 mg/kg/injection, schedule: Q01DX009 (ip), vehicle: saline with Tween-80) 93 % of control; (dose: 6.0 mg/kg/injection, schedule: Q01DX009 (ip), vehicle: saline with Tween-80) 103 % of control; (dose: 8.0 mg/kg/injection, schedule: Q04DX003 (ip), vehicle: saline with Tween-80) 97 % of control and 105 % of control; (dose: 12.0 mg/kg/injection, schedule: Q01DX009 (ip), vehicle: saline with Tween-80) 98 % of control; (dose: 12.0 mg/kg/injection, schedule: Q04DX003 (ip), vehicle: saline with Tween-80) 100 % of control and 105 % of control. Moreover, the T/C (dose: 18.0 mg/kg/injection, schedule: Q04DX003 (ip), vehicle: saline with Tween-80) is 103 % of control and 110 % of control; the T/C (dose: 25.0 mg/kg/injection, schedule: Q01DX009 (ip), vehicle: saline with Tween-80) is 88 % of control; the T/C (dose: 25.0 mg/kg/injection, schedule: Q04DX003 (ip), vehicle: saline with Tween-80) was 103 % of control; the T/C (dose: 50.0 mg/kg/injection, schedule: Q04DX003 (ip), vehicle: saline with Tween-80) was 109 % of control.

As to `c1cc2c(c(OCC3=NCCN3)c1)CCC2`, the T/C was 107 % of control (dose: 10.0 mg/kg/injection, schedule: Q01DX009 (ip), vehicle: Klucel (hydroxypropylcellulose) (HPC)); 105 % of control (dose: 20.0 mg/kg/injection, schedule: Q01DX009 (ip), vehicle: Klucel (hydroxypropylcellulose) (HPC)); 93 % of control (dose: 40.0 mg/kg/injection, schedule: Q01DX009 (ip), vehicle: Klucel (hydroxypropylcellulose) (HPC)).

As to `CCOC(=O)CCC(NC(=O)c1ccc(I)cc1)C(=O)OCC` (configuration not stated), the T/C reads like this: under setting [2], 94 % of control; under setting [4], 96 % of control; under setting [5], 102 % of control.

In the case of `O=C1C=CC(=O)C(SCCCSC2=CC(=O)C(SCCCSC3=CC(=O)C=CC3=O)=CC2=O)=C1`, the T/C was 92 % of control under setting [9], 92 % of control under setting [10] and 101 % of control under setting [11].

On to `Nc1nc(Cl)c(N=Nc2ccc(Cl)cc2)c(NC2CC(O)C(CO)C2)n1` (configuration not stated), for which the T/C runs as follows: under setting [6], 104 % of control; under setting [7], 100 % of control; under setting [8], 96 % of control.

Regarding `CCCCCN(C(=N)CCCC)S(=O)(=O)c1ccccc1`, the T/C is 89 % of control under setting [9], 95 % of control under setting [10] and 106 % of control under setting [11].

Regarding `O=S1(=O)C=C(Br)c2ccccc21`, the T/C is 101 % of control under setting [1]; 91 % of control under setting [2]; 91 % of control under setting [3]; 96 % of control under setting [4]; 90 % of control under setting [5].

For the compound `Cc1ccc2c(=O)n(C)c(=O)n(C)c2n1`, the T/C runs as follows: under setting [6], 106 % of control; under setting [7], 106 % of control; under setting [8], 106 % of control.

On to `Cc1ccc(Cl)cc1NS(=O)(=O)c1ccc2ccccc2c1`, for which the T/C (dose: 100.0 mg/kg/injection, schedule: Q01DX009 (ip), vehicle: saline with Tween-80) was 106 % of control; the T/C (dose: 100.0 mg/kg/injection, schedule: Q04DX003 (ip), vehicle: saline with Tween-80) is 96 % of control; the T/C (dose: 200.0 mg/kg/injection, schedule: Q01DX009 (ip), vehicle: saline with Tween-80) was 96 % of control; the T/C (dose: 200.0 mg/kg/injection, schedule: Q04DX003 (ip), vehicle: saline with Tween-80) was 104 % of control; the T/C (dose: 400.0 mg/kg/injection, schedule: Q01DX009 (ip), vehicle: saline with Tween-80) is 112 % of control; the T/C (dose: 400.0 mg/kg/injection, schedule: Q04DX003 (ip), vehicle: saline with Tween-80) is 91 % of control.

For `C=CCCCCCCCCC(=O)NC/C(Br)=C/Br`, the T/C is 103 % of control (dose: 75.0 mg/kg/injection, schedule: Q01DX009 (ip), vehicle: Klucel (hydroxypropylcellulose) (HPC)); 108 % of control (dose: 150.0 mg/kg/injection, schedule: Q01DX009 (ip), vehicle: Klucel (hydroxypropylcellulose) (HPC)); 93 % of control (dose: 300.0 mg/kg/injection, schedule: Q01DX009 (ip), vehicle: Klucel (hydroxypropylcellulose) (HPC)).

(Values after PubChem BioAssay AID248 (DTP/NCI, 2004).)
